Results taken from patent publication US20240150377A1, “MODULATORS OF CYSTIC FIBROSIS TRANSMEMBRANE CONDUCTANCE REGULATOR” (VERTEX PHARMACEUTICALS INCORPORATED, priority 2020, published 2024).

Molecular target: T1, CFTR (Homo sapiens, UniProt P13569, DEL508-508)
T1 construct: endogenous in cells; host or cells: primary human bronchial epithelial cells from CF subjects (F508del/MF-HBE), differentiated at air-liquid interface
Assay: HBE2 assay: Ussing chamber assay of CFTR-mediated short-circuit currents
Assay type: cell-based
Conditions: 3 μM corrector; F508del/MF-HBE cells; with 44 nM potentiator, 18-24 hours, 20% human serum
Procedure, shortened: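 Corrector activity read as CFTR-dependent ISC (μA/cm^2): peak forskolin current minus post-inhibitor steady state. Measured at 37 °C, voltage clamp at 0 mV, on F508del/MF-HBE epithelia grown >14 days air-liquid interface in Ussing chambers.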

T1 sequence (P13569 with tags, fused parts or gaps DEL508-508): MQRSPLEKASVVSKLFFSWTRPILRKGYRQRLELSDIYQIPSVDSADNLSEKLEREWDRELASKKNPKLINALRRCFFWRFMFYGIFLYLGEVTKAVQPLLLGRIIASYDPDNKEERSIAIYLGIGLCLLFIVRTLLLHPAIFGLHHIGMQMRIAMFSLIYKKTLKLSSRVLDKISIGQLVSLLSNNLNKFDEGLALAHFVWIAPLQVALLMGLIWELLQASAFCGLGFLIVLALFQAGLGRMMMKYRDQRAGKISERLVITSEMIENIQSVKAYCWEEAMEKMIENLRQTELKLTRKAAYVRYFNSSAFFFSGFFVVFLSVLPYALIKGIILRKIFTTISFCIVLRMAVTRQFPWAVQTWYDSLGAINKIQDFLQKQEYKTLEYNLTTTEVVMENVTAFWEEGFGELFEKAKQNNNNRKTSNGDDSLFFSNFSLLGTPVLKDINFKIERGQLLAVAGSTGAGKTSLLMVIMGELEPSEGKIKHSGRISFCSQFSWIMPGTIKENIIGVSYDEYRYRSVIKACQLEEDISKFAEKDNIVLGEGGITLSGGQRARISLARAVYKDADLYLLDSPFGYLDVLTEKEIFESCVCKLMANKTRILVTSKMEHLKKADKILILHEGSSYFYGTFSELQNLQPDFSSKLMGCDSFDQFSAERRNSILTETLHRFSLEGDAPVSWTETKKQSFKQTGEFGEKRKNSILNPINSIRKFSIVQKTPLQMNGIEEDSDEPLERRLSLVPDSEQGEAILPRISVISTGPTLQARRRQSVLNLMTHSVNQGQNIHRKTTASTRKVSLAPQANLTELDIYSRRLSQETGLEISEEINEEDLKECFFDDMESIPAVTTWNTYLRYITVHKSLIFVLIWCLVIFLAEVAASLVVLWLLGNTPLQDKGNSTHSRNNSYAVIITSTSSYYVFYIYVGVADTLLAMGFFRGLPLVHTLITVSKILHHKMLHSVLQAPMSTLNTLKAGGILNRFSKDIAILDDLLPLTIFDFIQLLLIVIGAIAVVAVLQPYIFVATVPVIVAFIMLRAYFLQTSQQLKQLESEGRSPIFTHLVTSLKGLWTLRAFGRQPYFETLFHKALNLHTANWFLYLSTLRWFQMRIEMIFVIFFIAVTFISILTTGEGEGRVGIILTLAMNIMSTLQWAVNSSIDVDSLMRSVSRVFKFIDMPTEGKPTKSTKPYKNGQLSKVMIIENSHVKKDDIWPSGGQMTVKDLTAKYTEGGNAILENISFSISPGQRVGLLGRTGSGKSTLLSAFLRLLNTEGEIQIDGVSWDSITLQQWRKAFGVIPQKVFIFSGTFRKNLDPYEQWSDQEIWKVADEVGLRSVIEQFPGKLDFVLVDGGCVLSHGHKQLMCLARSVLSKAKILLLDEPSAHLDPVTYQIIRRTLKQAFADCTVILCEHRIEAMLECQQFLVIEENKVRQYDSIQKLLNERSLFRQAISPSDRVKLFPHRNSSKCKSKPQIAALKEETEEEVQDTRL

Row | HBE2 Activity at 3 μM (%) | Compound
1 | +++ (+++ is >60+) | CC[C@@H]1CCCN1c1cncc(CN2C(=O)c3cccc(c3)S(=O)(=O)Nc3nc(cc(-c4c(C)cccc4C)n3)OC[C@H]2CCC(C)(C)C)n1 [Compound 1816]
2 | +++ (+++ is >60+) | Cc1cccc(C)c1-c1cc2nc(n1)NS(=O)(=O)c1cccc(c1)C(=O)N(Cc1cncc(N(C)CC(C)C)n1)[C@H](CC1CCCCC1)CO2 [Compound 1821]
3 | +++ (+++ is >60+) | Cc1cccc(C)c1-c1cc2nc(n1)NS(=O)(=O)c1cccc(c1)C(=O)N(Cc1cncc(N(C)C(C)C)n1)[C@H](CC1CCCCC1)CO2 [Compound 1825]
4 | +++ (+++ is >60+) | Cc1cccc(C)c1-c1cc2nc(n1)NS(=O)(=O)c1cccc(c1)C(=O)N(Cc1cnc3cc(C(C)C)n(C)c3n1)[C@H](CCC(C)C)CO2 [Compound 1827]
5 | +++ (+++ is >60+) | Cc1cccc(C)c1-c1cc2nc(n1)NS(=O)(=O)c1cccc(c1)C(=O)N(Cc1cnc3cc(C(C)C)n(C)c3n1)[C@H](CC1(C)CC1)CO2 [Compound 1831]
6 | +++ (+++ is >60+) | Cc1cccc(C)c1-c1cc2nc(n1)NS(=O)(=O)c1cccc(n1)C(=O)N(Cc1cncc(N(C)C3CCC3)n1)[C@H](CC(C)(C)C)CO2 [Compound 1832]
7 | +++ (+++ is >60+) | Cc1cccc(C)c1-c1cc2nc(n1)NS(=O)(=O)c1cccc(c1)C(=O)N(Cc1cnc3cc(C(C)C)n(C)c3n1)[C@H](CC(C)C)CO2 [Compound 1834]
8 | +++ (+++ is >60+) | Cc1cccc(C)c1-c1cc2nc(n1)NS(=O)(=O)c1cccc(c1)C(=O)N(Cc1cncc(N3CCC[C@@H]4CC[C@@H]43)n1)[C@H](CC(C)(C)F)CO2 [Compound 1840]
9 | +++ (+++ is >60+) | Cc1cccc(C)c1-c1cc2nc(n1)NS(=O)(=O)c1cccc(c1)C(=O)N(Cc1cncc(C(C)C)n1)[C@H](CCC(C)(C)C)CO2 [Compound 1842]
10 | +++ (+++ is >60+) | CCN(c1cncc(CN2C(=O)c3cccc(c3)S(=O)(=O)Nc3nc(cc(-c4c(C)cccc4C)n3)OC[C@H]2CCC(C)(C)C)n1)C(C)C [Compound 1850]
11 | +++ (+++ is >60+) | COC[C@@H](C)N(C)c1cncc(CN2C(=O)c3cccc(c3)S(=O)(=O)Nc3nc(cc(-c4c(C)cccc4C)n3)OC[C@H]2CCC(C)(C)C)n1 [Compound 1851]
12 | +++ (+++ is >60+) | Cc1cccc(C)c1-c1cc2nc(n1)NS(=O)(=O)c1cccc(c1)C(=O)N(Cc1cnc3ccn(C)c3n1)[C@H](CC(C)(C)C)CO2 [Compound 1853]
13 | +++ (+++ is >60+) | CCC(C)(C)C[C@@H]1COc2cc(-c3c(C)cccc3C)nc(n2)NS(=O)(=O)c2cccc(c2)C(=O)N1Cc1cncc(N2CCCC[C@H]2C)n1 [Compound 1863]
14 | +++ (+++ is >60+) | Cc1cccc(C)c1-c1cc2nc(n1)NS(=O)(=O)c1cccc(c1)C(=O)N(Cc1cncc(N3CCC[C@H]3C3CC3)n1)[C@H](CC1CCCCC1)CO2 [Compound 1866]
15 | +++ (+++ is >60+) | Cc1cccc(C)c1-c1cc2nc(n1)NS(=O)(=O)c1cccc(c1)C(=O)N(Cc1cncc(N3CC[C@H]3COC(C)C)n1)[C@H](CCC(C)(C)C)CO2 [Compound 1868]

The remaining lines, values behind:

Row | Compound | HBE2 Activity at 3 μM (%)
16 | Cc1cccc(C)c1-c1cc2nc(n1)NS(=O)(=O)c1cccc(c1)C(=O)N(Cc1cncc(N(C)C3CC4(CC4)C3)n1)[C@H](CCC(C)(C)C)CO2 [Compound 1817] | +++ (+++ is >60+)
17 | Cc1cccc(C)c1-c1cc2nc(n1)NS(=O)(=O)c1cccc(c1)C(=O)N(Cc1cncc(N(C)CC(C)(C)F)n1)[C@H](CCC(C)(C)C)CO2 [Compound 1818] | +++ (+++ is >60+)
18 | Cc1cccc(C)c1-c1cc2nc(n1)NS(=O)(=O)c1cccc(c1)C(=O)N(Cc1cnc3cc(C(C)C)n(C)c3n1)[C@H](CC(C)(C)F)CO2 [Compound 1819] | +++ (+++ is >60+)
19 | Cc1cccc(C)c1-c1cc2nc(n1)NS(=O)(=O)c1cccc(c1)C(=O)N(Cc1cnc3cc(C(C)C)n(C)c3n1)[C@H](CC1CC1)CO2 [Compound 1820] | +++ (+++ is >60+)
20 | Cc1cccc(C)c1-c1cc2nc(n1)NS(=O)(=O)c1cccc(c1)C(=O)N(Cc1cncc(N3CCCC[C@H]3C)n1)[C@H](CC1CCCCC1)CO2 [Compound 1822] | +++ (+++ is >60+)
21 | Cc1cccc(C)c1-c1cc2nc(n1)NS(=O)(=O)c1cccc(c1)C(=O)N(Cc1cncc(N3CC[C@H]3C)n1)[C@H](CC1CCCCC1)CO2 [Compound 1823] | +++ (+++ is >60+)
22 | Cc1cccc(C)c1-c1cc2nc(n1)NS(=O)(=O)c1cccc(c1)C(=O)N(Cc1cncc(N3CCCC3C(C)C)n1)[C@H](CC1CCCCC1)CO2 (stereo partly shown) [Compound 1824] | +++ (+++ is >60+)
23 | Cc1cccc(C)c1-c1cc2nc(n1)NS(=O)(=O)c1cccc(c1)C(=O)N(Cc1cnc3cc(C(C)C)n(C)c3n1)[C@H](CCC(C)(C)C)CO2 [Compound 1826] | +++ (+++ is >60+)
24 | Cc1cccc(C)c1-c1cc2nc(n1)NS(=O)(=O)c1cccc(c1)C(=O)N(Cc1cnc3cc(C(C)C)n(C)c3n1)[C@H](CCC1CC1)CO2 [Compound 1828] | +++ (+++ is >60+)
25 | Cc1cccc(C)c1-c1cc2nc(n1)NS(=O)(=O)c1cccc(c1)C(=O)N(Cc1cnc3cc(C(C)C)n(C)c3n1)[C@H](CC1(C)CCC1)CO2 [Compound 1829] | +++ (+++ is >60+)
26 | Cc1cccc(C)c1-c1cc2nc(n1)NS(=O)(=O)c1cccc(c1)C(=O)N(Cc1cnc3cc(C(C)C)n(C)c3n1)[C@H](CC1CCC1)CO2 [Compound 1830] | +++ (+++ is >60+)
27 | Cc1cccc(C)c1-c1cc2nc(n1)NS(=O)(=O)c1cccc(c1)C(=O)N(Cc1cnc(C)c(N3CC[C@H]3C)n1)[C@H](CC(C)(C)C)CO2 [Compound 1833] | +++ (+++ is >60+)
28 | Cc1cccc(C)c1-c1cc2nc(n1)NS(=O)(=O)c1cccc(c1)C(=O)N(Cc1cnc3cc(C(C)C)n(C)c3n1)[C@H](CC1(C(F)(F)F)CC1)CO2 [Compound 1835] | +++ (+++ is >60+)
29 | Cc1cccc(C)c1-c1cc2nc(n1)NS(=O)(=O)c1cccc(c1)C(=O)N(Cc1cnc3cc(C(C)C)n(C)c3n1)[C@H](CC(C)(C)C(F)(F)F)CO2 [Compound 1836] | +++ (+++ is >60+)
30 | Cc1cccc(C)c1-c1cc2nc(n1)NS(=O)(=O)c1cccc(c1)C(=O)N(Cc1cncc(N3CCC34CCC4)n1)[C@H](CCC(C)(C)C)CO2 [Compound 1837] | +++ (+++ is >60+)
31 | Cc1cccc(C)c1-c1cc2nc(n1)NS(=O)(=O)c1cccc(c1)C(=O)N(Cc1cncc(N3CCC[C@@H]4CC[C@@H]43)n1)[C@H](CC1CC1)CO2 [Compound 1839] | +++ (+++ is >60+)

Row | Compound | HBE2 Activity at 3 μM (%)
32 | Cc1cccc(C)c1-c1cc2nc(n1)NS(=O)(=O)c1cccc(c1)C(=O)N(Cc1cncc(N(C)C3CCC3)n1)[C@H](CC1CCCC1)CO2 [Compound 1844] | +++ (+++ is >60+)
33 | Cc1cccc(C)c1-c1cc2nc(n1)NS(=O)(=O)c1cccc(c1)C(=O)N(Cc1cncc(N(C)CC(C)C)n1)[C@H](CC1CCCC1)CO2 [Compound 1845] | +++ (+++ is >60+)
34 | Cc1cccc(C)c1-c1cc2nc(n1)NS(=O)(=O)c1cccc(c1)C(=O)N(Cc1cncc(N3CCC[C@H]3C(C)C)n1)[C@H](CC1CCCC1)CO2 [Compound 1846] | +++ (+++ is >60+)
35 | Cc1cccc(C)c1-c1cc2nc(n1)NS(=O)(=O)c1cccc(c1)C(=O)N(Cc1cncc(N3CCCC[C@H]3C)n1)[C@H](CC1CCCC1)CO2 [Compound 1847] | +++ (+++ is >60+)
36 | Cc1cccc(C)c1-c1cc2nc(n1)NS(=O)(=O)c1cccc(c1)C(=O)N(Cc1cncc(N(C)[C@H]3C[C@@H](F)C3)n1)[C@H](CCC(C)(C)C)CO2 [Compound 1848] | +++ (+++ is >60+)
37 | Cc1cccc(C)c1-c1cc2nc(n1)NS(=O)(=O)c1cccc(c1)C(=O)N(Cc1cncc(N(C)[C@H]3C[C@H](F)C3)n1)[C@H](CCC(C)(C)C)CO2 [Compound 1849] | +++ (+++ is >60+)
38 | Cc1cccc(C)c1-c1cc2nc(n1)NS(=O)(=O)c1cccc(c1)C(=O)N(Cc1cncc(C3CCC3)n1)[C@H](CCC(C)(C)C)CO2 [Compound 1852] | +++ (+++ is >60+)
39 | Cc1cccc(C)c1-c1cc2nc(n1)NS(=O)(=O)c1cccc(c1)C(=O)N(Cc1cncc(N3CC[C@H]4CC[C@H]43)n1)[C@H](CCC(C)(C)C)CO2 [Compound 1854] | +++ (+++ is >60+)
40 | COC[C@H]1CCCCN1c1cncc(CN2C(=O)c3cccc(c3)S(=O)(=O)Nc3nc(cc(-c4c(C)cccc4C)n3)OC[C@H]2CCC(C)(C)C)n1 [Compound 1857] | +++ (+++ is >60+)
41 | Cc1cccc(C)c1-c1cc2nc(n1)NS(=O)(=O)c1cccc(c1)C(=O)N(Cc1cnc3c(cc(C(C)C)n3C)n1)[C@H](CC(C)(C)C)CO2 [Compound 1858] | +++ (+++ is >60+)
42 | CCC(C)(C)C[C@@H]1COc2cc(-c3c(C)cccc3C)nc(n2)NS(=O)(=O)c2cccc(c2)C(=O)N1Cc1cncc(N2CC[C@H]2C)n1 [Compound 1860] | ++ (++ is 30-60%)
43 | CCC(C)(C)C[C@@H]1COc2cc(-c3c(C)cccc3C)nc(n2)NS(=O)(=O)c2cccc(c2)C(=O)N1Cc1cncc(N2CC[C@H]2C)n1 [Compound 1861] | +++ (+++ is >60+)
44 | CCC(C)(C)C[C@@H]1COc2cc(-c3c(C)cccc3C)nc(n2)NS(=O)(=O)c2cccc(c2)C(=O)N1Cc1cncc(N2CCCC[C@H]2C)n1 [Compound 1862] | ++ (++ is 30-60%)
45 | CC[C@H]1CCN1c1cncc(CN2C(=O)c3cccc(c3)S(=O)(=O)Nc3nc(cc(-c4c(C)cccc4C)n3)OC[C@H]2CCC(C)(C)C)n1 [Compound 1864] | +++ (+++ is >60+)
46 | COC[C@@H]1CCCN1c1cncc(CN2C(=O)c3cccc(c3)S(=O)(=O)Nc3nc(cc(-c4c(C)cccc4C)n3)OC[C@H]2CC2CCCCC2)n1 [Compound 1867] | +++ (+++ is >60+)
